# Results from article PMC10096175, “An In Vitro Antimicrobial, Anticancer and Antioxidant Activity of N–[(2–Arylmethylthio)phenylsulfonyl]cinnamamide Derivatives” (Molecules, 2023).
# Where two headings read alike, the source gives them in different places.
# Legend:
# [1] = tested on: C. diphtheriae; assay: MIC determination, reference strain (microdilution); format: cell-based; details: Corynebacterium diphtheriae; C. diphtheriae; Co-trimoxazole as sulfamethoxazole/trimethoprim; read-out: MIC
# [2] = tested on: B. subtilis ATCC 6633; assay: as above; format: cell-based; details: Bacillus subtilis, ATCC6633; B. subtilis ATCC 6633; Co-trimoxazole as sulfamethoxazole/trimethoprim; read-out: MIC
# [3] = in vitro; details: sheep, defibrinated sheep blood diluted 1:9 v/v with PBS, pH 7
# [4] = tested on: HeLa cells; assay: MTT assay; format: cell-based, human; details: for IC50: HeLa, MTT, 24 h treatment; for Selectivity index (SI): IC50 HEK-293 / IC50 HeLa
# [5] = tested on: S. epidermidis ATCC 14990; assay: MIC determination, reference strain (microdilution); format: cell-based; details: Staphylococcus epidermidis, ATCC14990; S. epidermidis ATCC 14990; Co-trimoxazole as sulfamethoxazole/trimethoprim; read-out: MIC
# [6] = tested on: E. hirae ATCC 10541; assay: as above; format: cell-based; details: Enterococcus hirae, ATCC10541; E. hirae ATCC 10541; Co-trimoxazole as sulfamethoxazole/trimethoprim; read-out: MIC
# [7] = tested on: E. faecalis ATCC 51299; assay: as above; format: cell-based; details: Enterococcus faecalis, ATCC51299; E. faecalis ATCC 51299; Co-trimoxazole as sulfamethoxazole/trimethoprim; read-out: MIC
# [8] = ABTS assay; details: ABTS radical scavenging; 10 min, 30 °C
# Protocol: The ABTS assay was performed spectrophotometrically. […] ABTS solution with methanol/DMSO (9/1 v/v) was used as a control. After 10 min of incubation at 30 °C in the dark, the absorbance was analyzed at λ = 750 nm by a 96-well microplate reader (Epoch, BioTek System, Santa Clara, CA, USA). Ascorbic acid was used as a standard.
# ABTS inhibition was calculated by the following equation:ABTS Inhibition (%) = [Acontrol − Asample)/Acontrol] × 100%
# (§1) IC50 values of the samples were calculated using program GraFit v. 7.0 (Erithacus Software). The analysis was performed three times, with tree replications in each (n = 9). Statistical analysis was performed with one-way ANOVA with Tuckey’s post-hoc test.
# [9] = tested on: S. aureus ATCC 6538; assay: MIC determination, reference strain (microdilution); format: cell-based; details: Staphylococcus aureus, ATCC6538; S. aureus ATCC 6538; ± SD; Co-trimoxazole as sulfamethoxazole/trimethoprim; read-out: MIC
# [10] = tested on: Staphylococcus sp. and Enterococcus sp.; assay: MIC, summary statements on reference Gram-positive cocci; format: cell-based; details: Staphylococcus and Enterococcus species, reference Gram-positive cocci (range over strains)
# Protocol: Sterile sheep blood defibrinated (GrasoBiotech). Co-trimoxazole (composition sulfamethoxazole 400 mg/trimethoprim 80 mg; WZF Polfa Poland). Ketoconazole (WZF Polfa Poland). Bacteria: Enterococcus hirae ATCC 10541 and Enterococcus faecalis ATCC 51299, Staphylococcus epidermidis ATCC 14990, Staphylococcus aureus ATCC 6538, clinical strains Staphylococcus aureus MRSA, clinical strains Staphylococcus sp. (MRCNS), clinical strain Staphylococcus epidermidis MRSE, clinical strain Enterococcus sp., Corynebacterium diphtheriae ZMF, Bacillus subtilis ATCC 6633, Escherichia coli ATCC 8739, Candida albicans ATCC 10231. Brain-heart infusion broth (BHI, Becton Dickinson) for Enterococcus hirae ATCC 10541 and Enterococcus faecalis ATCC 51299, BHI supplement with 10% bovine serum for Bacillus subtilis, Corynebacterium diphtheriae ZMF, Staphylococcus epidermidis ATCC 14990, Staphylococcus aureus ATCC 6538, clinical strains Staphylococcus aureus MRSA, clinical strains Staphylococcus sp. (CNS), clinical strain Staphylococcus epidermidis MRSE grew in Mueller-Hinton broth (MH cation-adjusted, Becton Dickinson) in an aerobic atmosphere at 37 °C for 48 h, in an aerobic atmosphere at 37 °C for 72 h. Candida albicans grew in Sabourauda broth (Sb, Becton Dickinson), in an aerobic atmosphere at 37 °C for 72 h. After determination of the bacterial viability, BHI blood agar plates, MH agar plates, and Sb agar plates were used.
# The MIC determination for the reference and clinical strains was performed based on the methodology described by Kula et al.. The dry test samples were dissolved in dimethyl sulfoxide (DMSO) and diluted in water, resulting in a finale concentration of about 500 µg/mL. These solutions were diluted and added to the first well of each microtiter line. Dilution in geometric progression was done by transferring the mixture/dilution (100 μL) from the first to the twelfth well. An aliquot (100 μL) was discarded from the twelfth well. The final concentration of the samples used in the antimicrobial activity assay ranged from 125 to 0.006 µg/mL. Co-trimoxazole (for bacteria), with the composition sulfamethoxazole 400 mg/trimethoprim 80 mg was used as a reference compound in the concentration range of 20 000/4000 to 1/0.2 µg/mL. Ketoconazole (for fungi) was used as a reference compound in the concentration range of 125 to 0.006 µg/mL. Tests were incubated in adequate conditions described by Kula et al.. Diluent concentration had no effect on the activity of the tested compounds. All experiments were carried out three times.
# [11] = tested on: C. albicans ATCC 10231; assay: MIC determination, reference fungal strain (microdilution); format: cell-based; details: Candida albicans, ATCC10231; C. albicans ATCC 10231; read-out: MIC
# [12] = DPPH assay; details: DPPH radical scavenging; 40 min, room temperature
# Protocol: The DPPH assay was performed spectrophotometrically. The amount of 30 µL of different concentrations of samples, dissolved in methanol/DMSO (9/1 v/v), was mixed with 170 µL of 0.06 mM DPPH methanolic solution and completed with methanol to a final volume of 300 µL. DPPH methanolic solution with methanol/DMSO (9/1 v/v) was used as a control. After 40 min of incubation at room temperature in the dark, the absorbance was analyzed at λ = 510 nm by a 96-well microplate reader (Epoch, BioTek System, Santa Clara, CA, USA). Ascorbic acid was used as a standard.
# DPPH inhibition was calculated by the following equation:DPPH Inhibition (%) = [Acontrol − Asample)/Acontrol] × 100%
# as §1
# [13] = tested on: E. coli ATCC 8739; assay: MIC determination, reference strain (microdilution); format: cell-based; details: Escherichia coli, ATCC8739; E. coli ATCC 8739; Co-trimoxazole as sulfamethoxazole/trimethoprim; read-out: MIC
# [14] = tested on: MCF-7 cells; assay: MTT assay; format: cell-based, human; details: for IC50: Homo sapiens, MCF7, MCF-7, MTT, 24 h treatment, read-out: IC50; for Selectivity index (SI): IC50 HEK-293 / IC50 MCF-7
# [15] = tested on: HEK-293 cells; assay: MTT assay, noncancerous cells; format: cell-based; details: Homo sapiens, HEK293; HEK-293; MTT, 24 h treatment; read-out: IC50
# [16] = tested on: SKOV-3 cells; assay: MTT assay; format: cell-based, human; details: for IC50: Homo sapiens, SK-OV-3, SKOV-3, MTT, 24 h treatment, read-out: IC50; for Selectivity index (SI): IC50 HEK-293 / IC50 SKOV-3
# [17] = tested on: cancer cells (HeLa, SKOV-3, MCF-7); assay: MTT assay, summary statements on the cancer cells; format: cell-based; details: Homo sapiens, cell line not specified
# [18] = tested on: clinical methicillin-resistant S. aureus (MRSA) strains; assay: MIC on clinical MRSA strains; format: cell-based; details: Staphylococcus aureus, MRSA / VISA; strains MRSA12673, MRSA21804, MRSA18532, MRSA12647 and MRSAN315 VISA
# Excerpt: In the next step, we evaluated the compounds on clinical methicillin-resistant S. aureus (MRSA) strains (Figure 2) and methicillin-resistant coagulase-negative Staphylococcus (MRCNS) (Figure 3). The group of CNS includes nonpathogenic or opportunistic pathogens, while coagulase-positive staphylococci are represented by S. aureus. About 30% of the human population carries S. aureus in the upper respiratory tract. Infections caused by S. aureus include all purulent skin conditions (boils, abscesses, folliculitis) and nosocomial infections. The strains isolated from hospitals are usually antibiotic-resistant, where MRSA strains are the majority. Staphylococcus epidermidis (like other coagulase-negative Staphylococcus) is included in the microflora of human skin and can easily cause surface contamination after surgical procedures.
# Sterile sheep blood defibrinated (GrasoBiotech). Co-trimoxazole (composition sulfamethoxazole 400 mg/trimethoprim 80 mg; WZF Polfa Poland). Ketoconazole (WZF Polfa Poland). Bacteria: Enterococcus hirae ATCC 10541 and Enterococcus faecalis ATCC 51299, Staphylococcus epidermidis ATCC 14990, Staphylococcus aureus ATCC 6538, clinical strains Staphylococcus aureus MRSA, clinical strains Staphylococcus sp. […]
# [19] = tested on: clinical strains of Enterococcus sp.; assay: MIC on clinical Enterococcus strains; format: cell-based
# [20] = Homo sapiens, 24 h, read-out: IC50
# [21] = Enterococcus sp. 3937152, read-out: MIC
SMILES,MIC [1] [µg/mL],MIC [2] [µg/mL],"IC50 [4, 20] [µg/mL]",Selectivity index (SI) [4],MIC [5] [µg/mL],MIC [6] [µg/mL],MIC [7] [µg/mL],IC50 ABTS [8] [µg/mL],MIC [9] [µg/mL],MIC [10] [µg/mL],MIC [11] [µg/mL],IC50 DPPH [12] [µg/mL],MIC [13] [µg/mL],IC50 [14] [µg/mL],Selectivity index (SI) [14],IC50 [15] [µg/mL],IC50 [16] [µg/mL],Selectivity index (SI) [16],IC50 ([17]; MTT) [µg/mL],IC50 ([17]; µg/mL bound converted) [µM],further results
"Cc1cc(S(=O)(=O)NC(=O)/C=C/c2ccc(Br)cc2)c(SCc2cccc3ccccc23)cc1Cl [Compound 16b, (E)–3–(4–Bromophenyl)–N–{[4–chloro–5–methyl–2–(naphthalen–1–yl)methylthio]phenylsulfonyl}acrylamide]",62.5 ± 0.29,62.5 ± 0.29,13.47 ± 0.13,1.2,1 ± 0.29,2 ± 0.58,2 ± 0.58,697.68 ± 1.26,1 ± 0.29,1 to 2,> 125,945.37 ± 0.14,> 125,30.7 ± 2.49,0.5,15.7 ± 1.62,16.6 ± 0.69,0.9,–,–,"hemolysis at 24 h, 31.25 µg/mL [3]: 12 to 20%"
"Cc1cc(S(=O)(=O)NC(=O)/C=C/c2ccc(F)cc2)c(SCc2cccc3ccccc23)cc1Cl [Compound 16c, (E)–N–{4–Chloro–5–methyl–2–[(naphthalen–1–yl)methylthio]phenylsulfonyl}–3–(4–fluorophenyl)acrylamide]",> 125,62.5 ± 0.29,11.2 ± 0.2,0.7,2 ± 0.58,2 ± 0.58,2 ± 0.58,622.23 ± 2.25,1 ± 0.29,1 to 2,> 125,620.47 ± 0.67,> 125,11.2 ± 0.08,0.7,7.67 ± 0.21,9.28 ± 1.02,0.8,< 10,≤ 20,–
"Cc1cc(S(=O)(=O)NC(=O)/C=C/c2ccc(Br)cc2)c(SCc2cc3c(cc2Cl)OCO3)cc1Cl [Compound 17a, (E)-3-(4-Bromophenyl)-N-{4-chloro-2-[(6-chlorobenzo[d][1,3]dioxol-5-yl)methylthio]-5-methylphenylsulfonyl}acrylamide]",> 125,62.5 ± 0.29,< 10,0.8,1 ± 0.58,2 ± 0.58,2 ± 0.58,569.99 ± 7.9,1 ± 0.29,1 to 2,> 125,790.52 ± 1.44,> 125,13 ± 0.66,0.5,6.49 ± 0.46,13.15 ± 0.05,0.5,< 10,≤ 20,MIC [18]: 8 to 16 µg/mL; IC50 [4]: 8.49 ± 0.49 µg/mL
"Cc1cc(S(=O)(=O)NC(=O)/C=C/c2ccc(F)cc2)c(SCc2cc3c(cc2Cl)OCO3)cc1Cl [Compound 17b, (E)–N–{4–Chloro–2–[(6–chlorobenzo[d][1,3]dioxol–5–yl)methylthio]–5–methylphenylsulfonyl}–3–(4–fluorophenyl)acrylamide]",> 125,62.5 ± 0.29,12 ± 0.44,0.6,2 ± 0.58,4 ± 0.15,4 ± 0.15,620.39 ± 1.29,2 ± 0.29,–,> 125,652.93 ± 2.39,> 125,14.8 ± 0.66,0.5,7.17 ± 0.44,11 ± 0.5,0.6,–,–,"MIC [18]: > 125 µg/mL; hemolysis at 24 h, 62.5 µg/mL [3]: 9%; MIC ([19]; Enteroccoccus sp. 3934825): > 125 µg/mL; MIC ([19]; Enterococcus sp. 12848): > 125 µg/mL; MIC [19, 21]: > 125 µg/mL"
"Cc1cc(S(=O)(=O)NC(=O)/C=C/c2ccc([N+](=O)[O-])cc2)c(SCc2cc3c(cc2Cl)OCO3)cc1Cl [Compound 17d, (E)–N–{4–Chloro–2–[(6–chlorobenzo[d][1,3]dioxol–5–yl)methylthio]–5–methylphenylsulfonyl}–3–(4–nitrophenyl)acrylamide]",62.5 ± 0.29,125 ± 0.29,< 10,1.5,2 ± 0.76,8 ± 0.15,8 ± 0.15,419.18 ± 2.72,4 ± 0.16,–,> 125,574.41 ± 1.34,> 125,16.3 ± 0.27,0.9,15.4 ± 0.69,15.3 ± 0.16,1.0,< 10,≤ 20,"hemolysis at 24 h, 31.25 µg/mL [3]: 12 to 20%; IC50 [4]: 9.99 ± 0.08 µg/mL; MIC [19, 21]: > 125 µg/mL"
